pKd: −log10 of the molar value.

This assay addresses T1, human DLK (Homo sapiens, UniProt Q12852).
T1 sequence (Q12852 1-859): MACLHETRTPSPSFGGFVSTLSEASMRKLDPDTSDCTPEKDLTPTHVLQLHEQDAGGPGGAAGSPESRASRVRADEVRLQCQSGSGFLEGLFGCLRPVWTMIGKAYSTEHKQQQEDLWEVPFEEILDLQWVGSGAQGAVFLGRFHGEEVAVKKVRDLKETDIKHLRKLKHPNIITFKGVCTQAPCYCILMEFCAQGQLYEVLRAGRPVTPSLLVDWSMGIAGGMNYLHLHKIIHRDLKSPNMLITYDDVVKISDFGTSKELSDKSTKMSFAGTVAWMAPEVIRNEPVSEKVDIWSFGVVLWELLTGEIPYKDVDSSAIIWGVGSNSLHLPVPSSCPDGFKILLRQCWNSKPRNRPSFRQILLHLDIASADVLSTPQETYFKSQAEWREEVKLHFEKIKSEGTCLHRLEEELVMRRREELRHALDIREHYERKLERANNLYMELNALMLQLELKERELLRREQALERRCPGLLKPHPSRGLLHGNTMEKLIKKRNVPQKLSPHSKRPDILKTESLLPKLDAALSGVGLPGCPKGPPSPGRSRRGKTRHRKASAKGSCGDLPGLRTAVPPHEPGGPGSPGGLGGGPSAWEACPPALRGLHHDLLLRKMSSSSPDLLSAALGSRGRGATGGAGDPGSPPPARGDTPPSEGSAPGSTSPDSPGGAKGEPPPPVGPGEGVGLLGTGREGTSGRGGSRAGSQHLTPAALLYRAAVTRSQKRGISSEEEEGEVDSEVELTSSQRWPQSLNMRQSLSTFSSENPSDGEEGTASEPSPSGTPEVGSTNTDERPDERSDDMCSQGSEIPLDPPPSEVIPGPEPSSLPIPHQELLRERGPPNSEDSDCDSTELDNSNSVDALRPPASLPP
In words: DLK Kd Determinations (KINOMEscan KdELECT, DiscoveRx). Details: full length of human DLK (amino acids 1-859); host or cells: transiently transfected HEK293 cells; unpurified extract. The conditions noted are these: fusion protein of full length human DLK (amino acids 1-859) and NFkB DNA binding domain; qPCR readout; duplicate. How it is done: The DLK dissociation constants (Kd) have been determined in the KINOMEscan KdELECT Service at DiscoveRx.
A fusion protein of full length of human DLK (amino acids 1-859) and the DNA binding domain of NFkB was expressed in transiently transfected HEK293 cells. From these HEK 293 cells, extracts were prepared in M-PER extraction buffer (Pierce) in the presence of Protease Inhibitor Cocktail Complete (Roche) and Phosphatase Inhibitor Cocktail Set II (Merck) per manufacturers' instructions. The DLK fusion protein was labeled with a chimeric double-stranded DNA tag containing the NFkB binding site (5′-GGGAATTCCC-3′) fused to an amplicon for qPCR readout, which was added directly to the expression extract (the final concentration of DNA-tag in the binding reaction is 0.1 nM).
Streptavidin-coated magnetic beads (Dynal M280) were treated with a biotinylated small molecule ligand for 30 minutes at room temperature to generate affinity resins the binding assays. The liganded beads were blocked with excess biotin and washed with blocking buffer (SeaBlock (Pierce), 1% BSA, 0.05% Tween 20, 1 mM DTT) to remove unbound ligand and to reduce nonspecific binding.
Extracts were used directly in binding assays without any enzyme purification steps at a ≧10,000-fold overall stock dilution (final DNA-tagged enzyme concentration <0.1 nM). Extracts were loaded with DNA-tag and diluted into the binding reaction in a two step process. First extracts were diluted 1:100 in 1× binding buffer (PBS/0.05% Tween 20/10 mM DTT/0.1% BSA/2 μg/ml sonicated salmon sperm DNA) containing 10 nM DNA-tag. This dilution was allowed to equilibrate at room temperature for 15 minutes and then subsequently diluted 1:100 in 1× binding buffer. Test compounds were prepared as 111× stocks in 100% DMSO. Kds were determined using an 11-point 3-fold compound dilution series with three DMSO control points. All compounds for Kd measurements are distributed by acoustic transfer (non-contact dispensing) in 100% DMSO. The compounds were then diluted directly into the assays such that the final concentration of DMSO was 0.9%. All reactions performed in polypropylene 384-well plates. Each was a final volume of 0.02 mL. Assays were incubated with shaking for 1 hour at room temperature. Then the beads were pelleted and washed with wash buffer (1×PBS, 0.05% Tween 20) to remove displaced kinase and test compound. The washed based were re-suspended in elution buffer (1×PBS, 0.05% Tween 20, 0.5 μM non-biotinylated affinity ligand) and incubated at room temperature with shaking for 30 minutes. The kinase concentration in the eluates was measured by qPCR. qPCR reactions were assembled by adding 2.5 μL of kinase eluate to 7.5 μL of qPCR master mix containing 0.15 μM amplicon primers and 0.15 μM amplicon probe. The qPCR protocol consisted of a 10 minute hot start at 95° C., followed by 35 cycles of 95° C. for 15 seconds, 60° C. for 1 minute.
Test compounds were prepared as 111× stocks in 100% DMSO. Kds were determined using an 11-point 3-fold compound dilution series with three DMSO control points. All compounds for Kd measurements are distributed by acoustic transfer (non-contact dispensing) in 100% DMSO. The compounds were then diluted directly into the assays such that the final concentration of DMSO was 0.9%. The Kds were determined using a compound top concentration of 30,000 nM. Kd measurements were performed in duplicate.
Binding constants (Kds) were calculated with a standard dose-response curve using the Hill equation: […]
The Hill Slope was set to −1. Curves were fitted using a non-linear least square fit with the Levenberg-Marquardt algorithm (Levenberg, K., A method for the solution of certain non-linear problems in least squares, Q. Appl. Math. 2, 164-168 (1944)). See also Fabian, M. A. et al. A small molecule-kinase interaction map for clinical kinase inhibitors. Nat. Biotechnol. […]
(In general: Quantitative PCR measures a nucleic acid by following its amplification.)
As a reminder, the pKd is the negative decadic logarithm of the Kd, by convention in mol/L. As to `CC(C)c1nc(-c2cnc(N)c(C(F)(F)F)c2)cn1[C@H]1[C@@H]2CN(CC(F)F)C[C@@H]21` [Example 17, 5-(1-((1R,5S,6s)-3-(2,2-difluoroethyl)-3-azabicyclo[3.1.0]hexan-6-yl)-2-isopropyl-1H-imidazol-4-yl)-3-(trifluoromethyl)pyridin-2-amine], the pKd was 6.77.

For `CC(=O)N1C[C@@H]2[C@H](C1)[C@H]2n1cc(-c2cnc(N)c(C(F)(F)F)c2)nc1CC1CC1` [Example 114, 1-((1R,5S,6s)-6-(4-(6-amino-5-(trifluoromethyl)pyridin-3-yl)-2-(cyclopropylmethyl)-1H-imidazol-1-yl)-3-azabicyclo[3.1.0]hexan-3-yl)ethan-1-one], the pKd was 7.18.

Turning to `Nc1ncc(-c2cn([C@H]3[C@@H]4CN(C5COC5)C[C@@H]43)c(C3CCC3)n2)cc1OC(F)F` [Example 57, 5-(2-cyclobutyl-1-((1R,5S,6s)-3-(oxetan-3-yl)-3-azabicyclo[3.1.0]hexan-6-yl)-1H-imidazol-4-yl)-3-(difluoromethoxy)pyridin-2-amine], the negative logarithm of the Kd (pKd) was 6.74.

The molecule `Nc1ncc(-c2cn([C@H]3[C@@H]4CN(CCF)C[C@@H]43)c(CC3CC3)n2)cc1OC(F)(F)F` [Example 101, 5-(2-(cyclopropylmethyl)-1-((1R,5S,6s)-3-(2-fluoroethyl)-3-azabicyclo[3.1.0]hexan-6-yl)-1H-imidazol-4-yl)-3-(trifluoromethoxy)pyridin-2-amine] had a pKd of 7.09.

Molecule `CC(=O)N1C[C@@H]2[C@H](C1)[C@H]2n1cc(-c2cnc(N)c(C(F)(F)F)c2)nc1CC(F)(F)F` [Example 82, 1-((1R,5S,6s)-6-(4-(6-amino-5-(trifluoromethyl)pyridin-3-yl)-2-(2,2,2-trifluoroethyl)-1H-imidazol-1-yl)-3-azabicyclo[3.1.0]hexan-3-yl)ethan-1-one] gave a pKd of 7.01.

For the molecule `CC(C)c1nc(-c2cnc(N)c(OC(F)(F)F)c2)cn1[C@H]1[C@@H]2CNC[C@@H]21` [Example 58, 5-(1-((1R,5S,6s)-3-azabicyclo[3.1.0]hexan-6-yl)-2-isopropyl-1H-imidazol-4-yl)-3-(trifluoromethoxy)pyridin-2-amine], the pKd was 7.03.

Take `CC(=O)N1C[C@@H]2[C@H](C1)[C@H]2n1cc(-c2cnc(N)c(OC(F)F)c2)nc1C1CC1` [Example 118, 1-((1R,5S,6s)-6-(4-(6-amino-5-(difluoromethoxy)pyridin-3-yl)-2-cyclopropyl-1H-imidazol-1-yl)-3-azabicyclo[3.1.0]hexan-3-yl)ethan-1-one]: the pKd is 7.21.

For `CC(C)c1nc(-c2cnc(N)c(C(F)(F)F)c2)cn1C` [Example 21, 5-(2-isopropyl-1-methyl-1H-imidazol-4-yl)-3-(trifluoromethyl)pyridin-2-amine], the pKd was 6.19.

Take `CC(=O)N1C[C@@H]2[C@H](C1)[C@H]2n1cc(-c2cnc(N)c(C(F)(F)F)c2)nc1C(C)C` [Example 14, 1-(6-(4-(6-amino-5-(trifluoromethyl)pyridin-3-yl)-2-isopropyl-1H-imidazol-1-yl)-3-azabicyclo[3.1.0]hexan-3-yl)ethan-1-one]: the pKd is 6.77.

As to `Nc1ncc(-c2cn([C@H]3[C@@H]4CN(CC(F)(F)F)C[C@@H]43)c(C3CC3)n2)cc1C(F)(F)F` [Example 93, 5-(2-cyclopropyl-1-((1R,5S,6s)-3-(2,2,2-trifluoroethyl)-3-azabicyclo[3.1.0]hexan-6-yl)-1H-imidazol-4-yl)-3-(trifluoromethyl)pyridin-2-amine], the negative-log Kd (pKd) was 6.57.

In the case of `COCCN1C[C@@H]2[C@H](C1)[C@H]2n1cc(-c2cnc(N)c(OC(F)F)c2)nc1C1CC1` [Example 107, 5-(2-cyclopropyl-1-((1R,5S,6s)-3-(2-methoxyethyl)-3-azabicyclo[3.1.0]hexan-6-yl)-1H-imidazol-4-yl)-3-(difluoromethoxy)pyridin-2-amine], the pKd is 7.13.

Consider `CC(C)c1nc(-c2cnc(N)c(OC(F)F)c2)cn1[C@H]1[C@@H]2CNC[C@@H]21` [Example 50, 5-(1-((1R,5S,6s)-3-azabicyclo[3.1.0]hexan-6-yl)-2-isopropyl-1H-imidazol-4-yl)-3-(difluoromethoxy)pyridin-2-amine], for which the pKd is 6.77.

On to `Nc1ncc(-c2cn([C@H]3[C@@H]4CN(C5COC5)C[C@@H]43)c(C3CCCC3)n2)cc1C(F)(F)F` [Example 62, 5-(2-cyclopentyl-1-((1R,5S,6s)-3-(oxetan-3-yl)-3-azabicyclo[3.1.0]hexan-6-yl)-1H-imidazol-4-yl)-3-(trifluoromethyl)pyridin-2-amine], for which the pKd is 7.07.

The molecule `COCCN1C[C@@H]2[C@H](C1)[C@H]2n1cc(-c2cnc(N)c(OC(F)F)c2)nc1C(C)C` [Example 55, 3-(difluoromethoxy)-5-(2-isopropyl-1-((1R,5S,6s)-3-(2-methoxyethyl)-3-azabicyclo[3.1.0]hexan-6-yl)-1H-imidazol-4-yl)pyridin-2-amine] showed a pKd of 6.62.

Molecule `CC(C)c1nc(-c2cnc(N)c(C(F)(F)F)c2)cn1C1CC2(COC2)C1` [Example 23, 5-(2-isopropyl-1-(2-oxaspiro[3.3]heptan-6-yl)-1H-imidazol-4-yl)-3-(trifluoromethyl)pyridin-2-amine] showed a pKd of 6.66.

Molecule `Nc1ncc(-c2cn([C@H]3[C@@H]4CN(CC(F)F)C[C@@H]43)c(CC(F)(F)F)n2)cc1C(F)(F)F` [Example 122, 5-(1-((1R,5S,6s)-3-(2,2-difluoroethyl)-3-azabicyclo[3.1.0]hexan-6-yl)-2-(2,2,2-trifluoroethyl)-1H-imidazol-4-yl)-3-(trifluoromethyl)pyridin-2-amine] gave a pKd of 6.92.

For the molecule `CC(C)c1nc(-c2cnc(N)c(OC(F)(F)F)c2)cn1[C@H]1[C@@H]2CN(CC(F)(F)F)C[C@@H]21` [Example 110, 5-(2-isopropyl-1-((1R,5S,6s)-3-(2,2,2-trifluoroethyl)-3-azabicyclo[3.1.0]hexan-6-yl)-1H-imidazol-4-yl)-3-(trifluoromethoxy)pyridin-2-amine], the pKd was 6.55.

`CC(C)c1nc(-c2cnc(N)c(C(F)(F)F)c2)cn1[C@H]1[C@@H]2CN(C3COC3)C[C@@H]21` [Example 12, 5-(2-isopropyl-1-((1R,5S,6s)-3-(oxetan-3-yl)-3-azabicyclo[3.1.0]hexan-6-yl)-1H-imidazol-4-yl)-3-(trifluoromethyl)pyridin-2-amine] had a pKd of 7.33.

The values above are taken from patent publication US20180057507A1, “INHIBITORS OF DUAL LEUCINE ZIPPER (DLK) KINASE FOR THE TREATMENT OF DISEASE” (Board of Regents, The University of Texas System, priority 2016, published 2018).
